According to patent publication US8741906B2 (priority 2011, dated 2014):
Where two headings read alike, the source gives them in different places.

Experiments:
human CB2 receptors = molecular target: T1, human CB2 receptors (Homo sapiens, UniProt P34972); assay: functional cAMP assay, human CB2; format: cell-based
T1 construct: expressed in transfected cells; host or cells: CHO cells
Procedure, shortened: (§1)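 CHO-hCB1/hCB2 cells, KRB + 1 mM IBMX preincubation 30 min 30 °C; cpd 30 min 30 °C; lysis + TR-FRET cAMP detection, 2 h RT; cAMP from std curve; EC50.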

human CB1 receptors = molecular target: T2, human CB1 receptors (Homo sapiens, UniProt P21554); assay: functional cAMP assay, human CB1; format: cell-based
T2 construct: expressed in transfected cells; host or cells: CHO cells
Procedure, shortened: as §1

[1] = CHO cells expressing human CB2, cAMP, read-out: human CB2 EC50
[2] = CHO cells expressing human CB1, cAMP, read-out: human CB1 EC50

T1 sequence (P34972 whole entry): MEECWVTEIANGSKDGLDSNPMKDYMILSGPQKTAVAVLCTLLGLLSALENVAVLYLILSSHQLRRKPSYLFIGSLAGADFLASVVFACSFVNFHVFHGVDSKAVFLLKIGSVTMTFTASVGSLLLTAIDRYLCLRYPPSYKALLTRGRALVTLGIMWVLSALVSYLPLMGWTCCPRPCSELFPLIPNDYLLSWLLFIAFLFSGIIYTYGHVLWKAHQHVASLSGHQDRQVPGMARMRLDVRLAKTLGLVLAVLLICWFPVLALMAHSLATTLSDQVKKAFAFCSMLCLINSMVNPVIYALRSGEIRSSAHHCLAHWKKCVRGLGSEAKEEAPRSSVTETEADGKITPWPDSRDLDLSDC
T2 sequence (P21554 whole entry): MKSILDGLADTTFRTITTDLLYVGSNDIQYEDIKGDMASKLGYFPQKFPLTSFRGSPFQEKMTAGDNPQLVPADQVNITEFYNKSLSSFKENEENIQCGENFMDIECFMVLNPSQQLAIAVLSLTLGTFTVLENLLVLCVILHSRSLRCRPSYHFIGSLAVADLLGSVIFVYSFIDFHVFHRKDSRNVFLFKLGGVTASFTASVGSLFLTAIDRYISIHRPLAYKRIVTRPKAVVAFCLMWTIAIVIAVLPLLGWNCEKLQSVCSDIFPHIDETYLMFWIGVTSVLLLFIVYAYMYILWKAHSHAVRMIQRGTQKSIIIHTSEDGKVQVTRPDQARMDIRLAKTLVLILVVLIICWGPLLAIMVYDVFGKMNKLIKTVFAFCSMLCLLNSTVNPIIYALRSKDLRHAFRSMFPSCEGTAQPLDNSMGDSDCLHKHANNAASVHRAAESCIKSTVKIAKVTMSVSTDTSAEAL

Structure (SMILES) | EC50 (human CB2 receptors; [1]) | EC50 (human CB1 receptors) | EC50 (human CB1 receptors; [2]) | EC50 (human CB2 receptors)
CC(=O)N(C)C1CCN(c2nc(C(C)(C)C)nc3c2nnn3Cc2ccccc2Cl)C1 (stereo not shown) [Example 194, N-{1-[5-tert-Butyl-3-(2-chloro-benzyl)-3H-[1,2,3]triazolo[4,5-d]pyrimidin-7-yl]-pyrrolidin-3-yl}-N-methyl-acetamide] | 285 nM | > 10000 nM | – | –
CC(C)(C)c1nc(N2CCC(c3ccccc3)C2)c2nnn(Cc3ccccc3Cl)c2n1 (stereo not shown) [Example 195, 5-tert-Butyl-3-(2-chloro-benzyl)-7-(3-phenyl-pyrrolidin-1-yl)-3H-[1,2,3]triazolo[4,5-d]pyrimidine] | 467 nM | > 10000 nM | – | –
CCN(C(C)=O)C1CCN(c2nc(C(C)(C)C)nc3c2nnn3Cc2ccccc2Cl)C1 (stereo not shown) [Example 196, N-{1-[5-tert-Butyl-3-(2-chloro-benzyl)-3H-[1,2,3]triazolo[4,5-d]pyrimidin-7-yl]-pyrrolidin-3-yl}-N-ethyl-acetamide] | 119 nM | > 10000 nM | – | –
COC(=O)C1CN(c2nc(C(C)(C)C)nc3c2nnn3Cc2ccccc2Cl)C1 [Example 197, 1-[5-tert-Butyl-3-(2-chloro-benzyl)-3H-[1,2,3]triazolo[4,5-d]pyrimidin-7-yl]-azetidine-3-carboxylic acid methyl ester] | 257 nM | > 10000 nM | – | –
CC1CCN(c2nc(C(C)(C)C)nc3c2nnn3Cc2ccccc2Cl)C1 (stereo not shown) [Example 198, 5-tert-Butyl-3-(2-chloro-benzyl)-7-(3-methyl-pyrrolidin-1-yl)-3H-[1,2,3]triazolo[4,5-d]pyrimidine] | 12.8 nM | – | 1710 nM | –
CC(C)(C)c1nc(N2CCC[C@H]2CN)c2nnn(Cc3ccccc3Cl)c2n1 [Example 199, C-{(S)-1-[5-tert-Butyl-3-(2-chloro-benzyl)-3H-[1,2,3]triazolo[4,5-d]pyrimidin-7-yl]-pyrrolidin-2-yl}-methylamine] | 183 nM | > 10000 nM | – | –
Cn1ccc(C2CCCN2c2nc(C(C)(C)C)nc3c2nnn3Cc2ccccc2Cl)n1 (stereo not shown) [Example 200, 5-tert-Butyl-3-(2-chloro-benzyl)-7-[2-(1-methyl-1H-pyrazol-3-yl)-pyrrolidin-1-yl]-3H-[1,2,3]triazolo[4,5-d]pyrimidine] | 178 nM | > 10000 nM | – | –
Cn1nccc1C1CCCN1c1nc(C(C)(C)C)nc2c1nnn2Cc1ccccc1Cl (stereo not shown) [Example 201, 5-tert-Butyl-3-(2-chloro-benzyl)-7-[2-(2-methyl-2H-pyrazol-3-yl)-pyrrolidin-1-yl]-3H-[1,2,3]triazolo[4,5-d]pyrimidine] | 65.7 nM | – | > 10000 nM | –
Cc1cc(C2CCCN2c2nc(C(C)(C)C)nc3c2nnn3Cc2ccccc2Cl)on1 (stereo not shown) [Example 202, 5-tert-Butyl-3-(2-chloro-benzyl)-7-[2-(3-methyl-isoxazol-5-yl)-pyrrolidin-1-yl]-3H-[1,2,3]triazolo[4,5-d]pyrimidine] | 86.8 nM | – | > 10000 nM | –
Cc1noc(C2CCCN2c2nc(C(C)(C)C)nc3c2nnn3Cc2ccccc2Cl)n1 (stereo not shown) [Example 203, 5-tert-Butyl-3-(2-chloro-benzyl)-7-[2-(3-methyl-[1,2,4]oxadiazol-5-yl)-pyrrolidin-1-yl]-3H-[1,2,3]triazolo[4,5-d]pyrimidine] | 53.1 nM | – | > 10000 nM | –
CC(C)(C)c1nc(N2CCC(O)C2)c2nnn(Cc3ccccc3Cl)c2n1 (stereo not shown) [Example 204, 1-[5-tert-Butyl-3-(2-chloro-benzyl)-3H-[1,2,3]triazolo[4,5-d]pyrimidin-7-yl]-pyrrolidin-3-ol] | 0.5 nM | – | > 10000 nM | –
CC(C)(C)c1nc(OC2CCC2)c2nnn(Cc3ccccc3Cl)c2n1 [Example 205, 5-tert-Butyl-3-(2-chloro-benzyl)-7-cyclobutoxy-3H-[1,2,3]triazolo[4,5-d]pyrimidine] | 12.2 nM | – | > 10000 nM | –
CC(C)(C)c1nc(OC2COC2)c2nnn(Cc3ccccc3Cl)c2n1 [Example 206, 5-tert-Butyl-3-(2-chloro-benzyl)-7-(oxetan-3-yloxy)-3H-[1,2,3]triazolo[4,5-d]pyrimidine] | 11.3 nM | – | > 10000 nM | –
COc1nc(C(C)(C)C)nc2c1nnn2Cc1ccccc1Cl [Example 207, 5-tert-Butyl-3-(2-chloro-benzyl)-7-methoxy-3H-[1,2,3]triazolo[4,5-d]pyrimidine] | 68 nM | – | > 10000 nM | –
CCOc1nc(C(C)(C)C)nc2c1nnn2Cc1ccccc1Cl [Example 208, 5-tert-Butyl-3-(2-chloro-benzyl)-7-ethoxy-3H-[1,2,3]triazolo[4,5-d]pyrimidine] | 9.2 nM | – | > 10000 nM | –
CC(C)Oc1nc(C(C)(C)C)nc2c1nnn2Cc1ccccc1Cl [Example 209, 5-tert-Butyl-3-(2-chloro-benzyl)-7-isopropoxy-3H-[1,2,3]triazolo[4,5-d]pyrimidine] | 16 nM | – | > 10000 nM | –

Structure (SMILES) | EC50 (human CB2 receptors; [1]) | EC50 (human CB1 receptors) | EC50 (human CB1 receptors; [2]) | EC50 (human CB2 receptors)
CC(C)(C)c1nc(OCC2CC2)c2nnn(Cc3ccccc3Cl)c2n1 [Example 210, 5-tert-Butyl-3-(2-chloro-benzyl)-7-cyclopropylmethoxy-3H-[1,2,3]triazolo[4,5-d]pyrimidine] | 16.7 nM | – | > 10000 nM | –
CC(Oc1nc(C(C)(C)C)nc2c1nnn2Cc1ccccc1Cl)C1CC1 (stereo not shown) [Example 211, 5-tert-Butyl-3-(2-chloro-benzyl)-7-(1-cyclopropyl-ethoxy)-3H-[1,2,3]triazolo[4,5-d]pyrimidine] | 98.6 nM | – | > 10000 nM | –
CC(C)(C)c1nc(OC2CCCC2)c2nnn(Cc3ccccc3Cl)c2n1 [Example 212, 5-tert-Butyl-3-(2-chloro-benzyl)-7-cyclopentyloxy-3H-[1,2,3]triazolo[4,5-d]pyrimidine] | 22 nM | – | > 10000 nM | –
CC(C)(C)COc1nc(C(C)(C)C)nc2c1nnn2Cc1ccccc1Cl [Example 213, 5-tert-Butyl-3-(2-chloro-benzyl)-7-(2,2-dimethyl-propoxy)-3H-[1,2,3]triazolo[4,5-d]pyrimidine] | 59.6 nM | – | > 10000 nM | –
CC(Oc1nc(C(C)(C)C)nc2c1nnn2Cc1ccccc1Cl)C(F)(F)F (stereo not shown) [Example 214, 5-tert-Butyl-3-(2-chloro-benzyl)-7-(2,2,2-trifluoro-1-methyl-ethoxy)-3H-[1,2,3]triazolo[4,5-d]pyrimidine] | 9.4 nM | – | > 10000 nM | –
C[C@H](Oc1nc(C(C)(C)C)nc2c1nnn2Cc1ccccc1Cl)C(F)(F)F [Example 215, 5-tert-Butyl-3-(2-chloro-benzyl)-7-((S)-2,2,2-trifluoro-1-methyl-ethoxy)-3H-[1,2,3]triazolo[4,5-d]pyrimidine] | 24.7 nM | – | > 10000 nM | –
C[C@@H](Oc1nc(C(C)(C)C)nc2c1nnn2Cc1ccccc1Cl)C(F)(F)F [Example 216, 5-tert-Butyl-3-(2-chloro-benzyl)-7-((R)-2,2,2-trifluoro-1-methyl-ethoxy)-3H-[1,2,3]triazolo[4,5-d]pyrimidine] | 10.4 nM | – | > 10000 nM | –
CC(C)(C)c1nc(N2CC[C@H](O)C2)c2nnn(Cc3ccccc3)c2n1 [Example 217, (3S)-1-(3-benzyl-5-tert-butyl-triazolo[4,5-d]pyrimidin-7-yl)pyrrolidin-3-ol] | 3.3 nM | – | > 10000 nM | –
CC(C)(C)c1nc(N2CCC(O)C2)c2nnn(Cc3ccccc3Cl)c2n1 (stereo not shown) [Example 218, 1-(5-tert-butyl-3-(2-chlorobenzyl)-3H-[1,2,3]triazolo[4,5-d]pyrimidin-7-yl)pyrrolidin-3-ol] | 0.5 nM | – | > 10000 nM | –
Cn1nnnc1Cn1nnc2c(N3CC[C@@H](O)C3)nc(C(C)(C)C)nc21 [Example 219, (R)-1-(5-tert-butyl-3-((1-methyl-1H-tetrazol-5-yl)methyl)-3H-[1,2,3]triazolo[4,5-d]pyrimidin-7-yl)pyrrolidin-3-ol] | – | > 10000 nM | – | 32.9 nM
Cn1nnnc1Cn1nnc2c(N3CCC(O)C3)nc(C(C)(C)C)nc21 (stereo not shown) [Example 220, 1-(5-tert-butyl-3-((1-methyl-1H-tetrazol-5-yl)methyl)-3H-[1,2,3]triazolo[4,5-d]pyrimidin-7-yl)pyrrolidin-3-ol] | – | > 10000 nM | – | 4.7 nM
CC(C)(C)c1nc(N2CC[C@](C)(O)C2)c2nnn(Cc3ccccc3Cl)c2n1 [Example 221-a, (S)-1-(5-tert-butyl-3-(2-chlorobenzyl)-3H-[1,2,3]triazolo[4,5-d]pyrimidin-7-yl)-3-methylpyrrolidin-3-ol] | 3 nM | – | 1800 nM | –
CC(C)(C)c1nc(N2CC[C@@](C)(O)C2)c2nnn(Cc3ccccc3Cl)c2n1 [Example 221-b, (R)-1-(5-tert-butyl-3-(2-chlorobenzyl)-3H-[1,2,3]triazolo[4,5-d]pyrimidin-7-yl)-3-methylpyrrolidin-3-ol] | 7 nM | – | 853 nM | –
CC(C)(C)c1nc(N2CC[C@](C)(O)C2)c2nnn(Cc3ccccc3C(F)(F)F)c2n1 [Example 222-a, (S)-1-(5-tert-butyl-3-(2-(trifluoromethyl)benzyl)-3H-[1,2,3]triazolo[4,5-d]pyrimidin-7-yl)-3-methylpyrrolidin-3-ol] | 0.8 nM | – | 894 nM | –
CC(C)(C)c1nc(N2CC[C@@](C)(O)C2)c2nnn(Cc3ccccc3C(F)(F)F)c2n1 [Example 222-b, (R)-1-(5-tert-butyl-3-(2-(trifluoromethyl)benzyl)-3H-[1,2,3]triazolo[4,5-d]pyrimidin-7-yl)-3-methylpyrrolidin-3-ol] | 5.2 nM | – | > 10000 nM | –
CC(C)(C)c1nc(N2CC[C@](C)(O)C2)c2nnn(Cc3ccccc3S(C)(=O)=O)c2n1 [Example 223-a, (S)-1-(5-tert-butyl-3-(2-(methylsulfonyl)benzyl)-3H-[1,2,3]triazolo[4,5-d]pyrimidin-7-yl)-3-methylpyrrolidin-3-ol] | 0.4 nM | – | 241 nM | –
